Experimental data from BindingDB's records for patent US11780849 (Volastra Therapeutics, 2023).

The molecules below were run against T1, Ectonucleotide pyrophosphatase/phosphodiesterase family member 1 (Homo sapiens, UniProt P22413) (assay: Inhibition of ENPP1 Hydrolysis of 2′,3′-cGAMP).
T1 sequence (P22413 whole entry): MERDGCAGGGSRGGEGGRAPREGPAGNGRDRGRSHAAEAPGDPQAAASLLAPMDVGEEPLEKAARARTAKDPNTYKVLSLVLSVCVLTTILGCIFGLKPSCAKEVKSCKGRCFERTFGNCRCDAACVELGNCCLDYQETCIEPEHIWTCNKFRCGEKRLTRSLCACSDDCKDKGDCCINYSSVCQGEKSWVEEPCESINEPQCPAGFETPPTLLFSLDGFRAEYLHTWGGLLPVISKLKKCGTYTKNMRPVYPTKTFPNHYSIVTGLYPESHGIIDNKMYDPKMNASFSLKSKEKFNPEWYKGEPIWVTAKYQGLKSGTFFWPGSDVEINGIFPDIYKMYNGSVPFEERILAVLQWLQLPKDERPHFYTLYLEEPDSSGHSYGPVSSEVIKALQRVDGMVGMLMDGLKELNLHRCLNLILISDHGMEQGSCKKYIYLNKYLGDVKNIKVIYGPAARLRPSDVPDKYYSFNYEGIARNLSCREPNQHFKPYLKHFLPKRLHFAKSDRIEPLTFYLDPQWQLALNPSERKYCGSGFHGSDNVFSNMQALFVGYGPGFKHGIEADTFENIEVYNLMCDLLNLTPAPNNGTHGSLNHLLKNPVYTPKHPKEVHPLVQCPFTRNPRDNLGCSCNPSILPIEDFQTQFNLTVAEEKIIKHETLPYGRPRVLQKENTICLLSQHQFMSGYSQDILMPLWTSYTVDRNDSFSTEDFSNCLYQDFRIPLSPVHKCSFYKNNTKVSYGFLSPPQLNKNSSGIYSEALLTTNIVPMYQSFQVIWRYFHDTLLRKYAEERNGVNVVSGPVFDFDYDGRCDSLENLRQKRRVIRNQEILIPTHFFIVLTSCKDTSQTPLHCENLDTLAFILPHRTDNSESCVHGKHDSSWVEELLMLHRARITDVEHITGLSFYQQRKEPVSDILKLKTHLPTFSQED
Description: Assay 1: Test compounds were plated in a 3 dilution scheme in a 384 well plate. […] AMP Detection solution (100 μL) was added to each well, the plate centrifuged and incubated for 60 min. Luminescence was measured with an Envision plate reader, and % Inhibition was calculated for each well as: (([max−min]−[test−min])/[max−min].

Row | Structure (SMILES) | IC50 [nM]
1 | COc1ccc2nccc(Oc3ccc(S(C)(=N)=O)cc3)c2n1 (configuration not stated) [US11780849, Compound 130] | > 1000
2 | COc1cccc2c(OCc3ccc(S(C)(=N)=O)cc3)ccnc12 (configuration not stated) [US11780849, Compound 134] | > 1000
3 | COc1ccc2c(OCc3ccc(S(C)(=N)=O)cc3F)ccnc2c1 (configuration not stated) [US11780849, Compound 135] | < 10
4 | COc1cc2nccc(N3CCC(CCS(C)(=N)=O)CC3)c2cc1Cl (configuration not stated) [US11780849, Compound 141] | < 10

Results, then the molecule that gave them:

Row | IC50 [nM] | Structure (SMILES)
5 | < 10 | COc1cc2nccc(-c3ccc4c(c3)CN(S(C)(=N)=O)CC4)c2cc1OC (configuration not stated) [US11780849, Compound 161]
6 | < 10 | COc1cc2nncc(N3CCC(CCS(C)(=N)=O)CC3)c2cc1OC (configuration not stated) [US11780849, Compound 151]
7 | < 10 | COc1cc2nccc(N3CCC(CCS(C)(=N)=O)CC3)c2cc1F (configuration not stated) [US11780849, Compound 150]
